Experimental data reported in patent US20180332847A1, “ANTIMICROBIAL METAL CARBOXYLATE-BENZISOTHIAZOLINONE MIXTURES” (Troy Corporation, priority 2017, published 2018).

What was measured:
Type in all cases: cell-based
Pseudomonas aeruginosa = test: Minimum Inhibitory Concentration (MIC) by spiral plater / spiral gradient endpoint against Pseudomonas aeruginosa; settings: quantity of BIT used alone that gives the desired effect, Pseudomonas aeruginosa
Protocol: (§1) Synergistic Index=Qa/QA+Qb/QB [Equation No. 1] • where Qa=the quantity of component A used in a binary mixture that gives the desired effect • QA=the quantity of component A which when used alone gives the desired effect • Qb=the quantity of component B used in a binary mixture that gives the desired effect • QB=the quantity of component B which when used alone gives the desired effect
(§2) Minimum Inhibitory Concentration (“MIC”) for each of the antimicrobial compositions was determined against a test microbe, which in this case was a spore suspension of the fungus Alternaria alternata, with the aid of an Autoplate 4000 spiral plater that is commercially available from Spiral Biotech, Inc., Norwood, Mass., and its accompanying spiral gradient endpoint software (hereinafter referred to as “the SGE software”). The spiral plater automates the normal serial dilution method for determining MICs. Although the details of the SGE software are held confidentially by Spiral Biotech, Inc., they are believed to consistent with the principles set forth in “Measurement of MICs of antibacterial agents by spiral gradient endpoint compared with conventional dilution method” J. H. Paton, H. A. Holt, and M. J. Bywater—Int. J. Exp. Clin. Chemother, 1990.
The spiral plater automatically applied 54.3 micro-liters of each antimicrobial composition of interest to the surface of 150 millimeter malt agar plates using an exponential application gradient. The concentration of the antimicrobial concentration was greatest near the center of the Petri plates and decreased toward the edges. Antimicrobial composition gradients were allowed to air dry at room temperature for 1 to 4 hours at 23° C. before inoculation with test microbe. Spiral gradient plates were inoculated by streaking with cotton swabs that had been soaked in test microbe spore suspension. Streaks were applied in a radial pattern, using a paper template generated by the SGE software to guide the application. Eight radii were inoculated per Petri plate. Each radius is considered as one replicated observation.
Inoculated spiral gradient plates were incubated for 48 hours in an incubator at 28° C. Visible growth of the test microbe developed along the radial streaks and ended where the concentration of the antimicrobial composition was sufficient to prevent growth. This growth endpoint value (expressed in mm as measured from center point of the Petri plate) was used to calculate MIC for the mixture, expressed as parts per million.
Utilizing the procedure described above in Example 1, Minimum Inhibitory Concentration (“MIC”) for each of the antimicrobial compositions was determined against a test microbe, which in this case was a spore suspension of the bacterium Pseudomonas aeruginosa. Several antimicrobial compositions containing calcium gluconate, BIT, or both in water were investigated, as shown below in Table 7.
Utilizing the procedure described above in Example 1, Minimum Inhibitory Concentration (“MIC”) for each of the antimicrobial compositions was determined against a test microbe, which in this case was a […] Pseudomonas aeruginosa. Several antimicrobial compositions containing calcium glycerate, BIT, or both in water were investigated, as shown below in Table 13.
Utilizing the procedure described above in Example 1, Minimum Inhibitory Concentration (“MIC”) of certain antimicrobial compositions was determined against a test microbe, which in this case was a spore suspension of the bacterium Pseudomonas aeruginosa. Several antimicrobial compositions containing zinc gluconate, BIT, or both in water were investigated, as shown below in Table 19.

Escherichia coli = test: Minimum Inhibitory Concentration (MIC) by spiral plater / spiral gradient endpoint against Escherichia coli
Protocol: as §1, §2
The spiral plater automatically applied 54.3 micro-liters of each antimicrobial composition of interest to the surface of 150 millimeter malt agar plates using an exponential application gradient. The concentration of the antimicrobial concentration was greatest near the center of the Petri plates and decreased toward the edges. […]
(§3) Inoculated spiral gradient plates were incubated for 48 hours in an incubator at 28° C. […] This growth endpoint value (expressed in mm as measured from center point of the Petri plate) was used to calculate MIC for the mixture, expressed as parts per million.
Utilizing the experimental procedure described above in Example 1, the MIC against Escherichia coli of several antibacterial compositions containing zinc gluconate, BIT, or both in water were determined.

[1] = test system: mixed bacterial inoculum: Pseudomonas aeruginosa (ATCC #10145), Escherichia coli (ATCC #11229), Enterobacter aerogenes (ATCC #13048), Alcaligenes faecalis …; test: Two-part bacterial challenge of acrylic latex paint samples with a mixed inoculum (performance ratings); set-up: key to Performance Ratings Week 1, 1 Day / Performance Ratings Week 1, 2 Days / Performance Ratings Week 1, 8 Days / Performance Ratings Week 2, 1 Day / Performance Ratings Week 2, 2 Days / Performance Ratings Week 2, 8 Days: 0: No bacterial growth; 1: Trace of bacterial growth; 2: Light bacterial growth; 3: Moderate bacterial growth; 4: Heavy bacterial growth; settings: for Performance Ratings Week 1, 1 Day: Week 1, 1 Day after inoculation; for Performance Ratings Week 1, 2 Days: Week 1, 2 Days after inoculation; for Performance Ratings Week 1, 8 Days: Week 1, 8 Days after inoculation; for Performance Ratings Week 2, 1 Day: Week 2, 1 Day after inoculation; for Performance Ratings Week 2, 2 Days: Week 2, 2 Days after inoculation; for Performance Ratings Week 2, 8 Days: Week 2, 8 Days after inoculation
Protocol: In order to quantify the antibacterial effectiveness of an antimicrobial composition of interest, samples were prepared by adding various amounts of the antimicrobial composition to identical volumes of a paint that contained no preservatives and was not contaminated by bacteria. In this case, the test sample was a white, aqueous-based, acrylic latex paint. The paint included an acrylic resin, and conventional additives such as surfactant, thickener, defoamer, and titanium oxide.
The samples of the paint were subjected to a two-part challenge procedure and the sample that provided acceptable anti-bacterial protection with the lowest concentration of the antimicrobial composition was identified. Each part of the anti-bacterial challenge consisted of a 7-day test cycle. The parts were performed consecutively over 14 test days.
Challenge testing was accomplished using a mixed bacterial inoculum as the contamination event. These bacteria are Pseudomonas aeruginosa (ATCC #10145), Escherichia coli (ATCC #11229), Enterobacter aerogenes (ATCC #13048), and Alcaligenes faecalis (ATCC #25094). To prepare the test inoculum, each type of bacteria was harvested separately in nutrient broth. Just before use in the challenge test, equal strengths of each bacterial culture were mixed to obtain an inoculum of approximately 10^8 colony forming units per milliliter (cfu/mL).
After incubation, both control blanks and samples containing preservatives of interest were inoculated with the mixed inoculum to a final of 1.0 weight %. […]
Performance ratings of 0, 1, 2, 3 or 4 for each inoculated paint sample were determined by visual inspection of the streak lines, according to the definitions set forth below in Table 25.

Staphylococcus aureus = test: Minimum Inhibitory Concentration (MIC) by spiral plater / spiral gradient endpoint against Staphylococcus aureus
Klebsiella pneumoniae = test: Minimum Inhibitory Concentration (MIC) by spiral plater / spiral gradient endpoint against Klebsiella pneumoniae; settings: quantity of BIT used alone that gives the desired effect, calcium ethylhexanoate-BIT series
Protocol: as §1
Minimum Inhibitory Concentration (“MIC”) for each of the antimicrobial compositions was determined against a test microbe, which in this case was a spore suspension of the fungus Alternaria alternata, with the aid of an Autoplate 4000 spiral plater that is commercially available from Spiral Biotech, Inc., Norwood, Mass., and its accompanying spiral gradient endpoint software (hereinafter referred to as “the SGE software”). […]
as §3
Utilizing the procedure described above in Example 1, Minimum Inhibitory Concentration (“MIC”) for each of the antimicrobial compositions was determined against a test microbe, which in this case was a spore suspension of the bacteria Klebsiella pneumoniae. […]

SMILES: O=c1[nH]sc2ccccc12 [BIT, 1,2-benzisothiazol-3(2H)-one]
- QB (Pseudomonas aeruginosa; calcium gluconate-BIT series): 85 ppm
- QB (Pseudomonas aeruginosa; calcium glycerate-BIT series): 27.5 ppm
- QB (Pseudomonas aeruginosa; zinc gluconate-BIT series): 661 ppm
- QB (Escherichia coli; MIC of BIT alone for Escherichia coli (average of Trials 1, 2), used for SI): 136 ppm
- ppm of BIT alone providing the same inhibition (Escherichia coli; zinc gluconate-BIT series, Escherichia coli): 136 ppm
- Performance Ratings Week 1, 1 Day ([1]; 50 ppm in acrylic latex paint): 4
- Performance Ratings Week 1, 2 Days ([1]; 50 ppm in acrylic latex paint): 4
- Performance Ratings Week 1, 8 Days ([1]; 50 ppm in acrylic latex paint): 4
- Performance Ratings Week 2, 1 Day ([1]; 50 ppm in acrylic latex paint): 4
- Performance Ratings Week 2, 2 Days ([1]; 50 ppm in acrylic latex paint): 4
- Performance Ratings Week 2, 8 Days ([1]; 50 ppm in acrylic latex paint): 4
- Performance Ratings Week 1, 1 Day ([1]; 500 ppm in acrylic latex paint): 4
- Performance Ratings Week 1, 2 Days ([1]; 500 ppm in acrylic latex paint): 2
- Performance Ratings Week 1, 8 Days ([1]; 500 ppm in acrylic latex paint): 0
- Performance Ratings Week 2, 1 Day ([1]; 500 ppm in acrylic latex paint): 4
- Performance Ratings Week 2, 2 Days ([1]; 500 ppm in acrylic latex paint): 4
- Performance Ratings Week 2, 8 Days ([1]; 500 ppm in acrylic latex paint): 0
- QB (Staphylococcus aureus; MIC of BIT alone for Staphylococcus aureus, used for SI): 16 ppm
- ppm of BIT alone providing the same inhibition (Staphylococcus aureus; zinc glycerate-BIT series, Staphylococcus aureus): 16 ppm
- QB (Klebsiella pneumoniae): 27 ppm
